Results: patent US6913708B2, “Cholesteric liquid crystal drying process and solvent” (3M Innovative Properties Company, priority 2003, dated 2005)

Assay: Solubility of cholesteric liquid crystal monomer in hot (boiling) solvents
Format: physicochemical
Method: Comparison of the Solubility of Various Monomers in 1,3-dioxolane and other Solvents.
4-(2-Acryloyloxy-ethoxy)-benzoic acid 4′-cyano-biphenyl-4-yl ester is a cholesteric liquid crystal monomer with the structure given below and can be prepared as described in European Patent Application Publication No. 834754, incorporated herein by reference. [drawing 2]
4-(2-Acryloyloxy-ethoxy)-benzoic acid 4′-cyano-biphenyl-4-yl ester was dissolved in hot (boiling) tetrahydrofuran and hot 1,3-dioxolane. Only 20% of the monomer dissolved in the tetrahydrofuran, while 40% dissolved in the 1,3-dioxolane.

Compound: C=CC(=O)OCCOc1ccc(C(=O)Oc2ccc(-c3ccc(C#N)cc3)cc2)cc1 [4-(2-Acryloyloxy-ethoxy)-benzoic acid 4′-cyano-biphenyl-4-yl ester]
- fraction of the monomer dissolved (hot 1,3-dioxolane): 40%
- fraction of the monomer dissolved (hot (boiling) tetrahydrofuran): 20%
